Measured values reported in US10725057B2, “Method for pretreatment and method for analysis of lenalidomide in biological sample” (Shiseido Company, Ltd, priority 2014, dated 2020).
Each block holds one compound with its values, some of them ahead of it.

What was measured:
[1] = test system: corneal vascularization elicited by bFGF or VEGF; settings: compared to the R-form or racemic form (NPL 6); cited from earlier work
[2] = Stability of lenalidomide in different solvents (HPLC peak areas of the enantiomers); type: physicochemical; settings: 0.5 mg/mL racemic mixture, room temperature or 50° C., 24 hours
Protocol: A racemic mixture of 0.5 mg/mL lenalidomide in methanol, ethanol, isopropanol, acetonitrile or ethyl acetate, as the sample (product of Selleck Chemicals, US) was incubated at room temperature or at 50° C. for 24 hours, and the following HPLC conditions were employed for quantification of the lenalidomide enantiomers, for evaluation of the stability of lenalidomide in the different solvents.
(§1) Apparatus: Nanospace SI-2 Series (Shiseido Corp.)
Mobile phase: EtOH (100%)
Injection volume: 5 μL, Detection: UV 230 nm.
The peak areas for the enantiomers before and after incubation are shown in FIG. 1 (the initially observed peaks are enantiomer 1, and the next observed peaks are enantiomer 2). […] Lenalidomide was also stable even in isopropanol.

[3] = test system: recurrent intractable multiple myeloma; settings: in combination with dexamethasone; cited from earlier work
[4] = Dependence of racemization of lenalidomide enantiomers on pH in aqueous buffers at room temperature; type: physicochemical
[5] = NPL 5; cited from earlier work
[6] = human blood plasma (NPL 10); cited from earlier work
[7] = Racemization half-life under biological buffer conditions (Na-phosphorate buffer pH 7.4, 37° C.); settings: average of 3 tests ± SD
[8] = Racemization half-life in human serum (37° C.); settings: for racemization half-life in serum, times longer than the corresponding TD enantiomer: human serum, 37° C.; for half-life in human serum compared to buffer: pH 7.4
From the text: The analysis method of the invention is shown as FIG. 15(b). The acid used to suspend the reaction while simultaneously precipitating and removing the protein was HClO4.
as §1

Compound: 3-amino-phthalimide-glutarimide [S-pomalidomide]
- inhibition of corneal vascularization [1]: significantly inhibit

Compound: Nc1cccc2c1CN(C1CCC(=O)NC1=O)C2=O (racemic) [lenalidomide, Lenalidomide]
- stability in solvent (decomposition) ([2]; acetonitrile and ethyl acetate): no decomposition was observed
- stability in solvent ([2]; isopropanol): stable
- stability in solvent ([2]; methanol and ethanol): highly unstable
- success rate [3]: 60%
- stability of the enantiomers ([4]; acidic conditions (<pH 4)): stable
- increase of racemization half-life for every pH reduction of 1 ([4]; aqueous buffers pH 4 to 9, room temperature): 10 times
- racemization half-life ([4]; pH 4, room temperature): estimation of the half-life was no longer possible
- racemization and decomposition (peak areas) in aqueous buffer ([4]; pH 9 and 8, room temperature): racemization and decomposition of LL takes place

Compound: O=C1CCC(N2C(=O)c3ccccc3C2=O)C(=O)N1 (racemic) [thalidomide]
- sedative action [5]: only been reported with the R-form
- racemization half-life in human blood plasma [6]: approximately 10 minutes

Compound: Nc1cccc2c1CN([C@@H]1CCC(=O)NC1=O)C2=O (single isomer, unassigned) [(R*)-LL]
- racemization half-life in aqueous buffer [7]: 4.45 ± 0.0183 h
- racemization half-life in serum, times longer than the corresponding TD enantiomer [8]: 3 times
- racemization half-life in human serum [8]: 1.82 ± 0.0333 h

Compound: Nc1cccc2c1CN([C@H]1CCC(=O)NC1=O)C2=O (single isomer, unassigned) [(S*)-LL]
- racemization half-life in aqueous buffer [7]: 4.53 ± 0.0217 h
- racemization on incubation in aqueous buffer ([4]; pH 6, room temperature): A small amount of (R*)-LL was produced
- racemization on incubation in aqueous buffer ([4]; pH 7 and higher, room temperature): racemization was significantly accelerated
- racemization half-life in serum, times longer than the corresponding TD enantiomer [8]: 6 times
- racemization half-life in human serum [8]: 2.18 ± 0.0817 h

- racemization half-life in aqueous buffer [7]: 4.92 ± 0.4 h
- racemization half-life in human serum [8]: 0.548 ± 0.417 h
- half-life in human serum compared to buffer [8]: 11.1%
Compound: O=C1CC[C@@H](N2C(=O)c3ccccc3C2=O)C(=O)N1 [(R)-TD, R-thalidomide]

- racemization half-life in aqueous buffer [7]: 4.43 ± 0.167 h
- racemization half-life in human serum [8]: 0.363 ± 0.0167 h
- half-life in human serum compared to buffer [8]: 8.2%
Compound: O=C1CC[C@H](N2C(=O)c3ccccc3C2=O)C(=O)N1 [(S)-TD, S-thalidomide]
